Assay results published in patent US12637472B2, “Benzimidazole heteroatom-containing spiro compound and medicinal use thereof” (Changzhi University, priority 2023, dated 2026).

Key:
Assay type in all cases: cell-based
[1] = tested on: human gastric adenocarcinoma cells AGS; test: MTT in vitro cell proliferation inhibition experiment, AGS; conditions: MTT method, 48 h contact between compound and cell, read-out: Antiproliferative activity (IC50, μM) AGS
Protocol: (§1) Human liver tumor cells HepG2, human colon cancer cells HCT116, and human gastric adenocarcinoma cells AGS were purchased from the Institute of Basic Medical Sciences, Chinese Academy of Medical Sciences. The cells each were preserved and passaged in the laboratory of the present disclosure according to respective cultivation data. Each cell line was routinely inoculated in a 50 mL cell culture flask, and cultivated with a 10% fetal bovine serum-containing DMEM/IRP-1640 medium at 37° C., 5% CO2, and 100% humidity, where the medium was changed daily. When growing to a confluency of 80% to 90%, cells were digested with a mixture of trypsin and EDTA and passaged according to 1:3.
(§2) An in vitro cell activity and proliferation inhibition experiment was conducted by an MTT method to investigate an impact of a target compound on a survival activity of each cell. Cells at a logarithmic growth phase were inoculated at 5×10^3 cells (100 μL)/well in a 96-well culture plate and cultivated for 24 h, and then compound solutions with different concentrations prepared in advance were added (100 μL) to the plate. At least 3 replicate wells were set for each concentration. A solvent control group without a compound and a blank control group without a cell were set. Edge wells each were filled with 200 μL of sterilized water. […] A liquid in each well was completely removed carefully, 150 μL of DMSO was added to each well, the plate was gently shaken on a microshaker for 10 min to make a purple crystal fully dissolved, and then an absorbance value was determined at 570 nm by a microplate reader. With a cell viability of the solvent control group without a compound as 100%, a cell survival rate was calculated as follows: a cell survival rate=(an absorbance value of a compound group−an absorbance value of the blank control group)/(an absorbance value of the control group−an absorbance value of the blank control group)×100%. A half-maximal inhibitory concentration (IC50) of a compound for a cell was calculated by the Graphpad Prism 5 software.

[2] = tested on: human colon cancer cells HCT116; test: MTT in vitro cell proliferation inhibition experiment, HCT116; conditions: MTT method, 48 h contact between compound and cell, read-out: Antiproliferative activity (IC50, μM) HCT116
Protocol: as §1, §2

[3] = tested on: Human liver tumor cells HepG2; test: MTT in vitro cell proliferation inhibition experiment, HepG2; conditions: MTT method, 48 h contact between compound and cell, read-out: Antiproliferative activity (IC50, μM) HepG2
Protocol: as §1, §2

IC50 [1]: 21.4 µM
IC50 [2]: 21.7 µM
IC50 [3]: 11 µM
SMILES: COc1ccc(C2=N[C@@H](c3ccc(Cl)cc3)[C@@H](c3ccc(Cl)cc3)N2C(=O)N2CCNC(=O)C2)c(OC(C)C)c1 [Nutlin-3a, reference compound]
